Measurements reported in paper PMC7844219, “Antifibrotic effect of novel neutrophil gelatinase-associated lipocalin inhibitors in cardiac and renal disease models” (Scientific Reports, 2021).
Values belong to the compound of their own block, whether it stands above or below them.

How the values were obtained:
hNGAL [1] = target: T1, hNGAL (Homo sapiens, UniProt P80188); assay: hNGAL-induced intracellular profibrotic protein levels in human cardiac fibroblasts (Western blot); type: cell-based; design: % inhibition versus hNGAL on Col I protein level / % inhibition versus hNGAL on Col III protein level / % inhibition versus hNGAL on Fibronectin protein level / % inhibition versus hNGAL on Galectin 3 protein level: concentration or dose not given beside the values
T1 construct: purchased R&D Systems
Procedure: (§1) Primary human cardiac fibroblasts (HCF) were obtained from Promocell (Heidelberg, Germany) and maintained in Fibroblast Media 3 following manufacturer’s instructions (Promocell). Cells were used between passages 5 and 7. Cells were stimulated with recombinant hNGAL (500 ng/mL, R&D Systems) or with TGFβ (10 ng/mL, R&D Systems) for 24 h. To assess cell proliferation the MTT test was used following provider’s instructions (Roche). For protein analysis. Primary Mouse Kidney Fibroblasts (MKF) were isolated from Wild Type (WT) mice. Briefly, 8 weeks old mice were sacrificed by cervical dislocation and kidneys were cleaned and rinsed in cold DPBS (Dulbecco's Phosphate-Buffered Saline). The renal cortex was minced and incubated in Dulbecco’s modified eagle medium/Nutrient mixture F-12 (DMEM/F12, Sigma) containing 1 mg/mL collagenase A (Roche) during 25 min at 37 °C. The digestion was inactivated by adding culture medium (DMEM/F12 + 10% FBS) then the cell suspension was passed through a 100-μm cell strainer. After centrifugation, the pellet (containing MKF) was diluted with culture medium then plated in 75 cm^2 culture flask. After 24 h MKF were washed with DPBS before replacement of fresh culture medium. Thereafter, culture medium was changed every 48 h. Once 70–80% confluent, MKF were trypsinized and plated in 12 or 6-well plates. For experimental use, MKF were starved with culture medium containing only 3% FBS. MKF were treated with mNGAL (500 ng/mL, R&D Systems) or with TGFβ (10 ng/mL, R&D Systems) for 6 h for gene expression analysis.
Total protein aliquots of 20 μg were prepared from cardiac homogenates and HCF and electrophoresed on SDS polyacrylamide gels and transferred to Hybond-c Extra nitrocellulose membranes (Amersham Biosciences). Membranes were incubated with primary antibodies for: Collagen I (Santa Cruz; dilution 1:500), Collagen type III (Santa Cruz; dilution 1:500), fibronectin (Millipore, 1:500), Galectin-3 (Thermo, 1:1000), α-SMA (Sigma, 1:1000), CTGF (Santa Cruz, 1:200), CD68 (Abcam, 1:500), CD80 (Santa Cruz, 1:500), CD86 (Santa Cruz, 1:500). […] After densitometric analyses, optical density values were expressed as arbitrary units. Results are expressed as an n-fold increase over the values of the control group in densitometric arbitrary units.

hERG channel = target: T2, hERG channel (Homo sapiens, UniProt Q12809); assay: Cardiotoxicity, Predictor hERG fluorescence polarization kit; type: binding
T2 construct: purchased Thermo Fisher Scientific
Procedure: (§2) Several parameters have been evaluated to determine ADME-Tox profile of the compounds. Two specific toxicity assays have been performed to assess hepatoxicity and cardiotoxicity. Hepatotoxicity was evaluated in isolated hepatocytes from swiss mice and determined by the thiazolyl blue tetrazolium bromide colorimetric assay (sigma, St Louis, MO, USA). Cardiotoxicity was evaluated using the commercially available Predictor hERG fluorescence polarization kit (Thermo Fisher Scientific, Illinois, USA). Several absorption, distribution, metabolism, and excretion (ADME) assays have been carried out. The following experiments were undertaken: stability in human microsomes, binding to human plasma protein, and CYP3A4 inhibition assay (Vivid CYP3A4 assay, Thermo Fisher Scientific, Illinois, USA). Physico-chemical properties were also assessed such as aqueous solubility and chemical stability.

[2] = test system: isolated hepatocytes from swiss mice; assay: Hepatotoxicity, thiazolyl blue tetrazolium bromide (MTT) colorimetric assay; type: cell-based, mouse
Procedure: as §2

human plasma protein = assay: Binding to human plasma protein; type: in vitro ADME
Procedure: as §2

Chemical stability = type: physicochemical; details: Table S5
Procedure: as §2

hNGAL [3] = target: T1, hNGAL; assay: hNGAL-induced IL6 and Col I secretion in human cardiac fibroblasts (ELISA); type: cell-based; design: % inhibition versus hNGAL on IL-6 secretion: concentration or dose not given beside the values; details: for IL-6 secretion: hNGAL-treated human cardiac fibroblasts, mean ± SEM
Procedure: as §1
IL6 and collagen type I concentrations were measured in cardiac tissue and cell supernatants by ELISA according to the manufacturer's instructions (R&D Systems).

hNGAL [4] = target: T1, hNGAL; assay: Cell proliferation (MTT) in hNGAL-treated human cardiac fibroblasts; type: cell-based
Procedure: as §1
Cell proliferation was assessed using the MTT Proliferation Assay (Sigma).

Aqueous solubility = type: physicochemical
Procedure: as §2

CYP3A4 = target: T3, CYP3A4 (Homo sapiens, UniProt P08684); assay: CYP3A4 inhibition assay (Vivid CYP3A4 assay); type: in vitro ADME
T3 construct: purchased Thermo Fisher Scientific
Procedure: as §2

[5] = Table S2, human cardiac fibroblasts
[6] = 10 µM, human cardiac fibroblasts, Fig. 1C
[7] = Table S4, second generation compounds and parents, Control 1.00, NGAL 1.45
[8] = Table S4, second generation compounds and parents, human cardiac fibroblasts

T1 sequence (P80188 21-198): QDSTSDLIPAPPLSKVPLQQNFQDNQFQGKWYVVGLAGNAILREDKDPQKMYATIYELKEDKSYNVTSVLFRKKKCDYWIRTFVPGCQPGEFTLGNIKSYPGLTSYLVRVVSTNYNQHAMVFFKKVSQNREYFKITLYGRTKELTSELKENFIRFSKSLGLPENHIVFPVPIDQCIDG
T3 sequence (P08684 whole entry): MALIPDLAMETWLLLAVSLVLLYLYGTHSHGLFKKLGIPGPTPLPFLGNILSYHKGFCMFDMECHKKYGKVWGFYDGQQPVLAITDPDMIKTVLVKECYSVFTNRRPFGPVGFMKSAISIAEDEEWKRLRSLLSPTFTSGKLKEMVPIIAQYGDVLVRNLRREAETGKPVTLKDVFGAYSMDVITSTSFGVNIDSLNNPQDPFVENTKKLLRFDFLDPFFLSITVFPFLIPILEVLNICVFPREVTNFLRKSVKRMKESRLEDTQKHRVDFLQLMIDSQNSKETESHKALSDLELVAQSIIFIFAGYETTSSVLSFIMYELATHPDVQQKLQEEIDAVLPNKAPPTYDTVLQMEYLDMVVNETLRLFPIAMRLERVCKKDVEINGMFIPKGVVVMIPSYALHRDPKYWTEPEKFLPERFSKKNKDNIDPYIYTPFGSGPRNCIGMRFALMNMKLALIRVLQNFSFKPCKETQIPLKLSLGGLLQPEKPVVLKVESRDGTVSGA
T2 sequence (Q12809 whole entry): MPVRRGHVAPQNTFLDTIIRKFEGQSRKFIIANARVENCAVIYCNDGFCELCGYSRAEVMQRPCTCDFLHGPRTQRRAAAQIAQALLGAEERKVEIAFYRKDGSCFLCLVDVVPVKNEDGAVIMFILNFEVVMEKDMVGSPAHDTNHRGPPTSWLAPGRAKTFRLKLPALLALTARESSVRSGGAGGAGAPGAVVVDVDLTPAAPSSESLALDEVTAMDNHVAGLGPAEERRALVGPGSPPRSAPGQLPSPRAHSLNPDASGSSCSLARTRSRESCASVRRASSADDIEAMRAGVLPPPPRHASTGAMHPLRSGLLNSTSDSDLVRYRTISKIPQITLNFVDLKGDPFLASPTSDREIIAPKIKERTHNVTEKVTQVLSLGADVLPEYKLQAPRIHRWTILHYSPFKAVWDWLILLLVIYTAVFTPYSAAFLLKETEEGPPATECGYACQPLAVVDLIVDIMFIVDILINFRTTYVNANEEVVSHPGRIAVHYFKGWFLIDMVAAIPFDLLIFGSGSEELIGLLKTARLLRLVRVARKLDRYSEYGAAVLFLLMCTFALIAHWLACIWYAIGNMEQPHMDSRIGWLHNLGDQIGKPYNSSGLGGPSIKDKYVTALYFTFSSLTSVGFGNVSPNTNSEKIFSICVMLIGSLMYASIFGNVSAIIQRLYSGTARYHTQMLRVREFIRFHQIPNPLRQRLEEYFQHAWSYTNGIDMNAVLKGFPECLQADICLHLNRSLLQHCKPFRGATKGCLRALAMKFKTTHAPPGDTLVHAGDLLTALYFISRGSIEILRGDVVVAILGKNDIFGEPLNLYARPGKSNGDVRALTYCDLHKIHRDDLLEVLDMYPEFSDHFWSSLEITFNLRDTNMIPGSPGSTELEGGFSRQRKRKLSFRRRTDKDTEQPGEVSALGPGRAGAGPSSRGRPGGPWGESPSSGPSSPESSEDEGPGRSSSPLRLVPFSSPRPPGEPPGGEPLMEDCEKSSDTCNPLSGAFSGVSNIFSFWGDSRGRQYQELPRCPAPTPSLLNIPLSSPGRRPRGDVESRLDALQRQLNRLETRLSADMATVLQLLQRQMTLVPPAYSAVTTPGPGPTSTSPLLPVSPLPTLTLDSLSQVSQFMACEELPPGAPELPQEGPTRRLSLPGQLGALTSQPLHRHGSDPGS

SMILES: CCS(=O)(=O)c1ccc2oc(SCc3cn4c(C)cc(C)nc4n3)nc2c1 [GPZ058225]
- hNGAL-induced expression of intracellular profibrotic proteins (Col I, Col III, fibronectin, Gal3), in words (hNGAL [1]; 10 µM, human cardiac fibroblasts, Fig. 1D): blocked
- Col III synthesis (protein level) (hNGAL [1]; Table S2, hNGAL-treated human cardiac fibroblasts, Control 1.0, NGAL 1.67, mean ± SEM): 1.05 ± 0.1
- Fibronectin synthesis (protein level) (hNGAL [1]; Table S2, hNGAL-treated human cardiac fibroblasts, Control 1.0, NGAL 1.8, mean ± SEM): 0.62 ± 0.1
- Col I synthesis (protein level) (hNGAL [1]; Table S2, hNGAL-treated human cardiac fibroblasts, Control 1.0, NGAL 2.03, mean ± SEM): 1.27 ± 0.1
- Galectin-3 synthesis (protein level) (hNGAL [1]; Table S2, hNGAL-treated human cardiac fibroblasts, Control 1.0, NGAL 2.1, mean ± SEM): 1.0 ± 0.2
- % inhibition versus hNGAL on Col I protein level (hNGAL [1]; [5]): 37.5%
- % inhibition versus hNGAL on Col III protein level (hNGAL [1]; [5]): 37.1%
- % inhibition versus hNGAL on Fibronectin protein level (hNGAL [1]; [5]): 65.5%
- % inhibition versus hNGAL on Galectin 3 protein level (hNGAL [1]; [5]): 52.3%
- Cardiotoxicity (hERG predictor assay), in words (hERG channel): did not block the hERG channel
- Hepatotoxicity (MTT) [2]: > 0.1 mM
- Hepatotoxicity ([2]; Table S5, MTT): > 100 µM
- Plasma protein binding (PPB), in words (human plasma protein): within an acceptance range
- hPPB% (human plasma protein; Table S5, human plasma protein binding): 89.11%
- Chemical Stability % (Chemical stability): 92.2%
- Increase in IL6 secretion induced by NGAL (hNGAL [3]; 1 µM, human cardiac fibroblasts, Fig. S3): did not prevent
- NGAL-induced Col I secretion, in words (hNGAL [3]; [6]): fully inhibited
- NGAL-induced IL6 secretion, in words (hNGAL [3]; [6]): fully inhibited
- IL-6 secretion (hNGAL [3]; Table S1, first generation compounds, Control 1.0 ± 0.1, NGAL 2.21 ± 0.2): 0.99 ± 0.3
- % inhibition versus hNGAL on IL-6 secretion (hNGAL [3]; Table S1, first generation compounds, human cardiac fibroblasts): 55.2%
- IL-6 secretion (hNGAL [3]; [7]): 0.72 ± 0.02
- % inhibition versus hNGAL on IL-6 secretion (hNGAL [3]; [8]): 50.4%
- Inhibitor effect on hNGAL-induced IL6 secretion, in words (hNGAL [3]; human cardiac fibroblasts, text on Tables S1 and S4): important inhibitor effect
- hNGAL-induced cell proliferation, in words (hNGAL [4]; 10 µM, Fig. 1E): blocked
- Dose–response on proliferation induced by NGAL (hNGAL [4]; Fig. S2): able to block the proliferative effects of NGAL at 1 and 10 µM, but not at lower concentrations
- Solubility in aqueous buffers, in words (Aqueous solubility): mild solubility problems
- Solubility test (Aqueous solubility): 63%
- Aquous solubility % (Aqueous solubility; Table S5): 63.46%
- CYP3A4 enzyme activity inhibited in a competition assay (CYP3A4): 32%
- CyP 3A4 Inhibition % (100= no inhibition) (CYP3A4; Table S5): 68.07 ± 1.52%

SMILES: Cc1cc(C)n2cc(CSc3nc4ccccc4[nH]3)nc2n1 [GPZ743042]
- IL-6 secretion (hNGAL [3]; [7]): 0.94 ± 0.03
- % inhibition versus hNGAL on IL-6 secretion (hNGAL [3]; [8]): 35.2%

SMILES: N#Cc1cccc(S(=O)(=O)NCc2cccc(-n3cccn3)c2)c1 [GPZ778195]
- IL-6 secretion (hNGAL [3]; [7]): 0.88± 0.04
- % inhibition versus hNGAL on IL-6 secretion (hNGAL [3]; [8]): 39.3%

SMILES: CCN1CCN(Cc2ccccc2CNS(=O)(=O)c2cccc(C(C)=O)c2)CC1 [GPZ913629]
- IL-6 secretion (hNGAL [3]; [7]): 0.93± 0.02
- % inhibition versus hNGAL on IL-6 secretion (hNGAL [3]; [8]): 35.9%

The next lines start with the values.

- IL-6 secretion (hNGAL [3]; [7]): 0.86± 0.02
- % inhibition versus hNGAL on IL-6 secretion (hNGAL [3]; [8]): 40.1%
SMILES: O=C(Nc1nc2cc(F)c(F)cc2s1)c1cn2cccnc2n1 [GPZ278618]

- IL-6 secretion (hNGAL [3]; [7]): 0.69± 0.02
- % inhibition versus hNGAL on IL-6 secretion (hNGAL [3]; [8]): 52.4%
SMILES: CC(=O)c1ccc(S(=O)(=O)Nc2ccccc2-n2cccn2)cc1 [GPZ478519]

- IL-6 secretion (hNGAL [3]; [7]): 0.83± 0.02
- % inhibition versus hNGAL on IL-6 secretion (hNGAL [3]; [8]): 42.8%
SMILES: CC(=O)c1cccc(S(=O)(=O)NCc2ccccc2Cn2cccn2)c1 [GPZ505884]

- IL-6 secretion (hNGAL [3]; [7]): 0.64± 0.02
- % inhibition versus hNGAL on IL-6 secretion (hNGAL [3]; [8]): 55.9%
SMILES: CC(=O)c1cccc(S(=O)(=O)NCc2ccccc2-c2ccc(CN(C)C)cc2)c1 [GPZ642292]

- IL-6 secretion (hNGAL [3]; [7]): 0.93± 0.03
- % inhibition versus hNGAL on IL-6 secretion (hNGAL [3]; [8]): 35.9%
SMILES: CC(=O)c1cccc(S(=O)(=O)NCc2ccccc2-c2ccsc2)c1 [GPZ863205]
